The values below come from patent publication US12637418B2, “Heterocyclic compounds as antagonist of NMDA” (TAKEDA PHARMACEUTICAL COMPANY LIMITED, priority 2019, dated 2026).

The target of the test is NMDA receptor composed of four subunits including 2 sets of heterodimers of NR1 and NR2B (human GRIN1 and GRIN2B expressed in HEK293 cell) (Homo sapiens, UniProt Q13224). As to the kind of experiment: NR2B Ca^2+ influx assay. The class given is cell-based. The following applies: 10 μM final compound concentration, 30 μM glutamic acid and 30 μM glycine, HEK293 cells expressing GRIN1 and GRIN2B, Fluo-4 fluorescence; for inhibition at 10 µM: read-out: inhibitory rate (10 μM compound concentration). The text has this:
To confirm the “antagonistic action on an NMDA receptor containing the NR2B subunit” of the compound of the present invention, human embryonic kidney cell expressing the “NMDA receptor composed of four subunits including 2 sets of heterodimers of NR1 and NR2B”, specifically HEK293 cell expressing human glutamate ionotropic receptor NMDA type subunit 1 (GRIN1) and human glutamate ionotropic receptor NMDA type subunit 2B (GRIN2B), was used and the activation suppressive effect on the receptors was measured.
HEK293 cells that express GRIN1 and GRIN2B were purchased from ChanTest (Human NMDA (NR1/NR2B) Receptor-expressing, stable replicating cell line (HEK293) catalog No. CT6121).
As an index of the NMDA receptor activation, intracellular calcium ion (Ca^2+) influx caused by the binding of glycine and glutamic acid with NR1 and NR2B, respectively, was used.
HEK293 cells that express GRIN1 and GRIN2B were cultured in DMEM/F-12 (COSMO BIO, 10-092-CM) medium added with 10% FBS (fetal bovine serum, AusGene), 100 units/mL penicillin, 100 μg/mL streptomycin, 500 μg/mL neomycin, 100 μg/mL Zeocin (registered trade mark, Invitrogen), 5 μg/mL Blasticidin in a cell culture flask in an incubator (under 37° C., 5% CO2).
The cells were detached from the flask with trypsin the day before the assay, suspended in a seeding medium (DMEM (Invitrogen, 31053) added with 10% FBS, 100 units/mL penicillin, 100 μg/mL streptomycin) at 8×10^5 cells/mL, seeded by 25 μL per well in a 384-well plate (Falcon, 356663) at 20000 cells/well, and cultured overnight in an incubator. On the day of the assay, tetracycline (Wako Pure Chemical Industries, Ltd., 209-16561) was diluted with the seeding medium at 2 μg/mL, added at 25 μL/well to the plate seeded with the cells, and cultured for 2 hr in an incubator. Thereafter, the medium was removed, and the cells were washed with 50 μL/well assay buffer (137 mM NaCl, 4 mM KCl, 1.8 mM CaCl2, 10 mM HEPES (pH 7.2), 10 mM Glucose, 0.1% BSA). Then, a loading buffer (assay buffer added with 2.5 μM Fluo-4AM, 2 mM Amaranth, 1 mM Tartrazine) was added at 25 μL/well, and the cells were incubated in the incubator for 30 min, and at room temperature for 15 min. A solution of the Example compound diluted with the above-mentioned assay buffer at 30 μM (final concentration 10 μM) was added at 25 μL/well, and the cells were left standing for 15 min at room temperature. Using FDSS7000EX/μCELL (Hamamatsu Photonics K.K.), an assay buffer containing 30 μM glutamic acid and 30 μM glycine was added at 25 μL/well, and fluorescence signals with wavelengths of Excitation 480 nm and Emission 540 nm were measured every 3 seconds for 5 min. The inhibitory activity was calculated as a relative activity value (inhibitory rate) that inhibits 100% of the cumulative value of the fluorescence value of a well added with an assay buffer free of glutamic acid, glycine, relative to the cumulative value of the fluorescence value of each well.

Chain of NMDA receptor composed of four subunits including 2 sets of heterodimers of NR1 and NR2B (human GRIN1 and GRIN2B expressed in HEK293 cell) (Q13224 27-1484, other chains not shown): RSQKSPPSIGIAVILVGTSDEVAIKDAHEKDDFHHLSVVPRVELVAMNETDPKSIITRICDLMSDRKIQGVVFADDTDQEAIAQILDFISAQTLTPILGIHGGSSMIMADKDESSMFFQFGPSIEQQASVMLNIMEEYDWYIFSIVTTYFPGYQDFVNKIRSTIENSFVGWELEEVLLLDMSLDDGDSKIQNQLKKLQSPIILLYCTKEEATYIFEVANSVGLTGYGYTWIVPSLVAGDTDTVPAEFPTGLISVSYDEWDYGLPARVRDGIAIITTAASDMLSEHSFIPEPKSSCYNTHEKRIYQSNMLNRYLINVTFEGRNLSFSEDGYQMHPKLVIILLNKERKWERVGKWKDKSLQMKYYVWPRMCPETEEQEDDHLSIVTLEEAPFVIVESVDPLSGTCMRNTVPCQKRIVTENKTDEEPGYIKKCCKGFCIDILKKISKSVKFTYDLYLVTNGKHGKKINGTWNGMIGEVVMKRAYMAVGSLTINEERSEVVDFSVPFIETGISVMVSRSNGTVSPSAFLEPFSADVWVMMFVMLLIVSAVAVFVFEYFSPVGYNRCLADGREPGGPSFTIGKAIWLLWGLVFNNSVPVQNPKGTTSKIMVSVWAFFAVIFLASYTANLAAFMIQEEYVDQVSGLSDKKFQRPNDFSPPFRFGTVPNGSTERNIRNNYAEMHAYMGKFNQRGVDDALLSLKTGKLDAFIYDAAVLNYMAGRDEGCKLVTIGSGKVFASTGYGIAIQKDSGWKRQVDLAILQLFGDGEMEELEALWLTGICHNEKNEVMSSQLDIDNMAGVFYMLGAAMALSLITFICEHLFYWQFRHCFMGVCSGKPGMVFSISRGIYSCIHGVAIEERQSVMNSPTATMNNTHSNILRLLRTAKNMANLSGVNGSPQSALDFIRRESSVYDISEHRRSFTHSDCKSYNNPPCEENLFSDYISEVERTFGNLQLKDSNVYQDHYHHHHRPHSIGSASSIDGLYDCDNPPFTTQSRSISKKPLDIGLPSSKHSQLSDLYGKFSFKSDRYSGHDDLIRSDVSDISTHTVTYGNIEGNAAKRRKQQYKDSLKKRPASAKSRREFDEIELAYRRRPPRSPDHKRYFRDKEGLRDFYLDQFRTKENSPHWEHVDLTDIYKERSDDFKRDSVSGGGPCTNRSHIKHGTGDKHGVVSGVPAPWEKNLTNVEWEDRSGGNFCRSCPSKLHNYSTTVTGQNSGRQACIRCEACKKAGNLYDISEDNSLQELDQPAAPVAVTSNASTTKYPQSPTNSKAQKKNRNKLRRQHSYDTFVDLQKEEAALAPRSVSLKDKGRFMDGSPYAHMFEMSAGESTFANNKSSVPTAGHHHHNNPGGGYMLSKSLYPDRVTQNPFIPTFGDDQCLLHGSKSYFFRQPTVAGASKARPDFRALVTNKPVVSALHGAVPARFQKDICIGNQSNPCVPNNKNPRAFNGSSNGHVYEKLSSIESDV

Regarding `COc1ccc(C#N)cc1CNC(=O)c1ccc(OC(F)F)c(F)c1` [Example 10, N-[(5-cyano-2-methoxyphenyl)-methyl]-4-(difluoromethoxy)-3-fluorobenzamide], the inhibition at 10 µM worked out at 95%. Consider `COc1cc(F)c(C#N)cc1CNC(=O)c1cnc(OC(F)F)c(F)c1` [Example 23, N-[(5-cyano-4-fluoro-2-methoxyphenyl)-methyl]-6-(difluoromethoxy)-5-fluoropyridine-3-carboxamide], for which the inhibition at 10 µM is 98%. On the same count and under the same terms, for `COc1cc(C#N)cc(CNC(=O)c2cnc(OC)c(F)c2)c1F` [Example 26, N-[(5-cyano-2-fluoro-3-methoxyphenyl)-methyl]-5-fluoro-6-methoxypyridine-3-carboxamide] the value was 75%.

On to `COc1cnc(C#N)cc1CNC(=O)c1ccc(C(F)(F)F)c(F)c1` [Example 30, N-[(2-cyano-5-methoxypyridin-4-yl)methyl]-3-fluoro-4-(trifluoromethyl)-bezamide], for which the “inhibitory rate (10 μM compound concentration)” value came to 87. In the case of `COc1ncc(C(=O)NCc2cc(C#N)cc(F)c2OC)cc1F` [Example 21, N-[(5-cyano-3-fluoro-2-methoxyphenyl)-methyl]-5-fluoro-6-methoxypyridine-3-carboxamide], the inhibition at 10 µM came to 94%.

With `N#Cc1ccc(Br)c(CNC(=O)c2ccc(OC(F)F)c(F)c2)c1` [Example 3, N-[(2-bromo-5-cyanophenyl)methyl]-4-(difluoromethoxy)-3-fluorobenzamide], the inhibition at 10 µM was found to be 93%. Same read-out and setting: for `COc1cc(C#N)cc(CNC(=O)c2cnc(OC(F)F)c(F)c2)c1F` [Example 25, N-[(5-cyano-2-fluoro-3-methoxyphenyl)-methyl]-6-(difluoromethoxy)-5-fluoropyridine-3-carboxamide] the value was 89%.

Regarding `N#Cc1ccc(Br)c(CNC(=O)c2cnc(OC(F)F)c(F)c2)c1` [Example 2, N-[(2-bromo-5-cyanophenyl)methyl]-6-(difluoromethoxy)-5-fluoropyridine-3-carboxamide], the inhibition at 10 µM is 92%. On the same count and under the same terms, for `Cc1c(C#N)ccc(F)c1CNC(=O)c1cnc(OC(F)F)c(F)c1` [Example 18, N-[(3-cyano-6-fluoro-2-methylphenyl)-methyl]-6-(difluoromethoxy)-5-fluoropyridine-3-carboxamide] the value was 66%. For `N#Cc1ccc(F)c(CNC(=O)c2cnc(OC(F)F)c(F)c2)c1` [Example 12, N-[(5-cyano-2-fluorophenyl)methyl]-6-(difluoromethoxy)-5-fluoropyridine-3-carboxamide], the inhibition at 10 µM stood at 91%. Same read-out and setting: for `COc1ccc(C#N)cc1CNC(=O)c1cnc(OC(F)F)c(F)c1` [Example 7, N-[(5-cyano-2-methoxyphenyl)methyl]-6-(difluoromethoxy)-5-fluoropyridine-3-carboxamide] the value was 94%. For `COc1ncc(C#N)cc1CNC(=O)c1ccc(C(F)(F)F)s1` [Example 16, N-[(5-cyano-2-methoxypyridin-3-yl)methyl]-5-(trifluoromethyl)thiophene-2-carboxamide], the inhibition at 10 µM was determined as 94%. Take `COc1cnc(C#N)cc1CNC(=O)c1ccc(OC(F)(F)F)cc1` [Example 29, N-[(2-cyano-5-methoxypyridin-4-yl)methyl]-4-(trifluoromethoxy)-bezamide]: the “inhibitory rate (10 μM compound concentration)” value turned out to be 92. As for `COc1cnc(C#N)cc1CNC(=O)c1cnc(OC(F)F)c(F)c1` [Example 28, N-[(2-cyano-5-methoxypyridin-4-yl)methyl]-6-(difluoromethoxy)-5-fluoropyridine-3-carboxamide], the inhibition at 10 µM came out at 91%.

Turning to `N#Cc1ccc(OCC(F)F)c(CNC(=O)c2cnc(OC(F)F)c(F)c2)c1` [Example 14, N-{[5-cyano-2-(2,2-difluoroethoxy)-phenyl]-methyl}-6-(difluoromethoxy)-5-fluoropyridine-3-carboxamide], the inhibition at 10 µM came out at 92%.
